Where “and” joins values, the source holds several entries; their conditions need not be identical. Equal entries are not always repeated. Toxic doses and inconclusive results are not listed. Rule for the calls: active = survival T/C of 150% or more; inactive = T/C below 125% in these data.
System: P388 leukemia ip, CD2F1 mice, survival T/C
Assay: NCI In Vivo Anticancer Drug Screen. Data for tumor model P388 Leukemia (intraperitoneal) in CD2F1 (CDF1) mice
Conditions: endpoint: median survival time, higher = longer survival
Procedure, shortened: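 Mice carrying the transplanted tumor received test compound or vehicle. Survival was recorded in each group, and the value is the treated-group measurement divided by that of the vehicle-treated control group.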

[1] = dose: 100.0 mg/kg/injection, schedule: Q04DX003 (ip), vehicle: Klucel (hydroxypropylcellulose) (HPC)
[2] = dose: 200.0 mg/kg/injection, schedule: Q04DX003 (ip), vehicle: Klucel (hydroxypropylcellulose) (HPC)
[3] = dose: 400.0 mg/kg/injection, schedule: Q04DX003 (ip), vehicle: Klucel (hydroxypropylcellulose) (HPC)
[4] = dose: 25.0 mg/kg/injection, schedule: Q01DX009 (ip), vehicle: saline with Tween-80
[5] = dose: 50.0 mg/kg/injection, schedule: Q01DX009 (ip), vehicle: saline with Tween-80
[6] = dose: 100.0 mg/kg/injection, schedule: Q01DX009 (ip), vehicle: saline with Tween-80
[7] = dose: 12.5 mg/kg/injection, schedule: Q01DX005 (ip), vehicle: Klucel (hydroxypropylcellulose) (HPC)
[8] = dose: 25.0 mg/kg/injection, schedule: Q01DX005 (ip), vehicle: Klucel (hydroxypropylcellulose) (HPC)
[9] = dose: 60.0 mg/kg/injection, schedule: Q01DX005 (ip), vehicle: saline with Tween-80
[10] = dose: 120.0 mg/kg/injection, schedule: Q01DX005 (ip), vehicle: saline with Tween-80
[11] = dose: 240.0 mg/kg/injection, schedule: Q01DX005 (ip), vehicle: saline with Tween-80
[12] = dose: 50.0 mg/kg/injection, schedule: Q04DX002 (ip), vehicle: Klucel (hydroxypropylcellulose) (HPC)
[13] = dose: 50.0 mg/kg/injection, schedule: Q01DX009 (ip), vehicle: Klucel (hydroxypropylcellulose) (HPC)
[14] = dose: 100.0 mg/kg/injection, schedule: Q01DX009 (ip), vehicle: Klucel (hydroxypropylcellulose) (HPC)
[15] = dose: 50.0 mg/kg/injection, schedule: Q01DX005 (ip), vehicle: Klucel (hydroxypropylcellulose) (HPC)
[16] = dose: 100.0 mg/kg/injection, schedule: Q01DX005 (ip), vehicle: Klucel (hydroxypropylcellulose) (HPC)
[17] = dose: 200.0 mg/kg/injection, schedule: Q01DX005 (ip), vehicle: Klucel (hydroxypropylcellulose) (HPC)

Measured: T/C

Cc1cc(=O)[nH]c2c(C)cccc12
inactive: [1] 96 % of control | [2] 98 % of control | [3] 99 % of control

N#Cc1c2c(c(O)[nH]c1=O)C(=O)c1ccccc1-2
inactive: dose: 12.5 mg/kg/injection, schedule: Q01DX009 (ip), vehicle: saline with Tween-80 115 % of control | [4] 104 % of control | [5] 93 % of control

CCOC(=O)C(CCl)C(C(=O)OCC)C(=O)OCC (stereo unspecified)
inactive: [4] 117 % of control | [5] 110 % of control | [6] 112 % of control

COc1ccc2oc(-c3ccc(Cl)cc3)c(N3CCN(C)CC3)c2c1
inactive: dose: 60.0 mg/kg/injection, schedule: Q01DX005 (ip), vehicle: saline 102 % of control and 93 % of control and 97 % of control | dose: 120.0 mg/kg/injection, schedule: Q01DX005 (ip), vehicle: saline 102 % of control and 103 % of control and 105 % of control | dose: 240.0 mg/kg/injection, schedule: Q01DX005 (ip), vehicle: saline 122 % of control and 96 % of control

O=[N+]([O-])c1c(Cl)nc(-c2ccccc2)nc1Cl
inactive: dose: 6.25 mg/kg/injection, schedule: Q01DX005 (ip), vehicle: Klucel (hydroxypropylcellulose) (HPC) 101 % of control | [7] 93 % of control | [8] 100 % of control

CC1COC2(CC1OC(=O)/C=C/c1ccccc1)OC1CC(C(=O)OC3OC(C)C(O)C(O)C3OC3OC(C)C(O)C(O)C3O)CCC1C21CO1 (stereo unspecified)
inactive: dose: 1.88 mg/kg/injection, schedule: Q01DX005 (ip), vehicle: saline + alcohol 106 % of control | dose: 3.75 mg/kg/injection, schedule: Q01DX005 (ip), vehicle: saline + alcohol 106 % of control | dose: 7.5 mg/kg/injection, schedule: Q01DX005 (ip), vehicle: saline + alcohol 111 % of control and 118 % of control | dose: 15.0 mg/kg/injection, schedule: Q01DX005 (ip), vehicle: saline + alcohol 118 % of control
active: dose: 60.0 mg/kg/injection, schedule: Q01DX005 (ip), vehicle: saline + alcohol 153 % of control

COC(=O)c1ccccc1NC1OC(CO)C(O)C1O (stereo unspecified)
inactive: [9] 104 % of control | [10] 98 % of control | [11] 93 % of control

BC(=O)O
inactive: dose: 25.0 mg/kg/injection, schedule: Q01DX005 (ip), vehicle: saline 97 % of control | dose: 50.0 mg/kg/injection, schedule: Q01DX005 (ip), vehicle: saline 93 % of control | dose: 100.0 mg/kg/injection, schedule: Q01DX005 (ip), vehicle: saline 93 % of control | dose: 200.0 mg/kg/injection, schedule: Q01DX005 (ip), vehicle: saline 106 % of control

CN1CNC(=O)c2n[nH]nc21
inactive: dose: 12.5 mg/kg/injection, schedule: Q04DX002 (ip), vehicle: Klucel (hydroxypropylcellulose) (HPC) 99 % of control | dose: 25.0 mg/kg/injection, schedule: Q04DX002 (ip), vehicle: Klucel (hydroxypropylcellulose) (HPC) 108 % of control | [12] 100 % of control and 102 % of control

COc1ccc(Cc2c3cc(OC)c(OC)cc3cc(=O)n2C)cc1OC
inactive: [13] 106 % of control | [14] 106 % of control

COc1cc(-c2cnc3c(n2)c(=O)[nH]c(=O)n3C)ccc1O
inactive: dose: 100.0 mg/kg/injection, schedule: Q04DX002 (ip), vehicle: saline 104 % of control | dose: 200.0 mg/kg/injection, schedule: Q04DX002 (ip), vehicle: saline 103 % of control | dose: 400.0 mg/kg/injection, schedule: Q04DX002 (ip), vehicle: saline 95 % of control

Nc1nc(Cl)cc(=O)[nH]1
inactive: dose: 50.0 mg/kg/injection, schedule: Q04DX003 (ip), vehicle: Klucel (hydroxypropylcellulose) (HPC) 94 % of control | [1] 102 % of control | [2] 94 % of control | [3] 94 % of control

COc1cc(CC2C(=O)OCC2C(=O)c2ccc3c(c2)OCO3)cc(OC)c1OC (stereo unspecified)
inactive: [7] 102 % of control | [8] 102 % of control | [15] 91 % of control and 93 % of control | [16] 98 % of control | [17] 98 % of control

CC(C)C(=O)CCCN1C(=O)c2ccccc2C1=O
inactive: dose: 12.5 mg/kg/injection, schedule: Q01DX009 (ip), vehicle: distilled water + Tween-80 94 % of control | dose: 25.0 mg/kg/injection, schedule: Q01DX009 (ip), vehicle: distilled water + Tween-80 86 % of control | dose: 50.0 mg/kg/injection, schedule: Q01DX009 (ip), vehicle: distilled water + Tween-80 86 % of control | dose: 100.0 mg/kg/injection, schedule: Q01DX009 (ip), vehicle: distilled water + Tween-80 100 % of control

CC1=CS(=O)c2ccccc2N1C (stereo unspecified)
inactive: [12] 97 % of control | dose: 100.0 mg/kg/injection, schedule: Q04DX002 (ip), vehicle: Klucel (hydroxypropylcellulose) (HPC) 100 % of control | dose: 100.0 mg/kg/injection, schedule: Q04DX002 (ip), vehicle: suspension in saline 109 % of control | dose: 200.0 mg/kg/injection, schedule: Q04DX002 (ip), vehicle: Klucel (hydroxypropylcellulose) (HPC) 101 % of control | dose: 200.0 mg/kg/injection, schedule: Q04DX002 (ip), vehicle: suspension in saline 124 % of control | dose: 400.0 mg/kg/injection, schedule: Q04DX002 (ip), vehicle: Klucel (hydroxypropylcellulose) (HPC) 108 % of control | dose: 400.0 mg/kg/injection, schedule: Q04DX002 (ip), vehicle: suspension in saline 117 % of control

CC1(C)OP2(O)(OC(C)(C)c3ccccc32)c2ccccc21
inactive: [13] 99 % of control | [14] 102 % of control | dose: 200.0 mg/kg/injection, schedule: Q01DX009 (ip), vehicle: Klucel (hydroxypropylcellulose) (HPC) 104 % of control

COCCOC(=O)CCCCC(=O)OCCOC
inactive: [6] 100 % of control | dose: 100.0 mg/kg/injection, schedule: Q04DX003 (ip), vehicle: saline sonified 100 % of control | dose: 200.0 mg/kg/injection, schedule: Q01DX009 (ip), vehicle: saline with Tween-80 104 % of control | dose: 200.0 mg/kg/injection, schedule: Q04DX003 (ip), vehicle: saline sonified 100 % of control | dose: 400.0 mg/kg/injection, schedule: Q01DX009 (ip), vehicle: saline with Tween-80 109 % of control | dose: 400.0 mg/kg/injection, schedule: Q04DX003 (ip), vehicle: saline sonified 95 % of control

Cc1cc(O)cc(O)c1C(=O)OC1CC2(C)C3CC(C)(C)CC3C=C(C=O)C12O (stereo unspecified)
inactive: dose: 1.5 mg/kg/injection, schedule: Q01DX005 (ip), vehicle: Klucel + Tween-80 107 % of control | dose: 3.0 mg/kg/injection, schedule: Q01DX005 (ip), vehicle: Klucel + Tween-80 97 % of control | dose: 6.0 mg/kg/injection, schedule: Q01DX005 (ip), vehicle: Klucel + Tween-80 103 % of control | dose: 12.0 mg/kg/injection, schedule: Q01DX005 (ip), vehicle: Klucel + Tween-80 99 % of control

O=C(c1ccccc1)N(CCO)CCO
inactive: dose: 50.0 mg/kg/injection, schedule: Q01DX009 (ip), vehicle: saline 108 % of control | dose: 100.0 mg/kg/injection, schedule: Q01DX009 (ip), vehicle: saline 94 % of control | dose: 200.0 mg/kg/injection, schedule: Q01DX009 (ip), vehicle: saline 101 % of control

COc1cc2c(cc1OC)C(=O)C(Br)CC2 (stereo unspecified)
inactive: [5] 104 % of control | [6] 113 % of control

Cc1cc(NC(=S)SC(C)C)ccc1Br
inactive: dose: 50.0 mg/kg/injection, schedule: Q01DX009 (ip), vehicle: suspension in saline 100 % of control | dose: 100.0 mg/kg/injection, schedule: Q01DX009 (ip), vehicle: suspension in saline 101 % of control | dose: 200.0 mg/kg/injection, schedule: Q01DX009 (ip), vehicle: suspension in saline 100 % of control

O=C1COCC(=O)OCCOCCOCCO1
inactive: [1] 100 % of control | [2] 100 % of control | [3] 100 % of control

C/C(=C\C(=O)c1cccc(F)c1)N1CCN(c2ccc(F)cc2)CC1
inactive: [15] 100 % of control | [16] 96 % of control | [17] 100 % of control

O=C(O)C1C2CC3C(OC(=O)C31)C2Br (stereo unspecified)
inactive: [9] 100 % of control | [10] 97 % of control | [11] 96 % of control

Cc1ccc2c(NCCCCCCCCNc3c4ccccc4nc4cc(C)ccc34)c3ccccc3nc2c1
active: dose: 2.5 mg/kg/injection, schedule: Q01DX009 (ip), vehicle: water 150 % of control
